Calls of active or inactive are those of the source. No rule for the calls is given here.
Test system: CCRIS mutagenicity, Ames/micronucleus/aberration tests
Assay: CCRIS mutagenicity studies
Settings: Test System: AMES SALMONELLA TYPHIMURIUM, Method: PREINCUBATION
[1] = Strain/Indicator: TA98, Metabolic Activation: NONE
[2] = Strain/Indicator: TA100, Metabolic Activation: NONE
[3] = Strain/Indicator: TA1535, Metabolic Activation: NONE
[4] = Strain/Indicator: TA1537, Metabolic Activation: NONE

## O=c1ccc(=O)c2c(=O)c(Cl)c(Cl)c(=O)c1=2
Strain/Indicator: TA97, Metabolic Activation: NONE
  mutagenic call: inactive; negative
Strain/Indicator: TA97, Metabolic Activation: RAT, LIVER, S-9, PHENOBARBITAL AND 5,6-BENZOFLAVONE
  mutagenic call: active; positive
[1]
  mutagenic call: inactive; negative
Strain/Indicator: TA98, Metabolic Activation: RAT, LIVER, S-9, PHENOBARBITAL AND 5,6-BENZOFLAVONE
  mutagenic call: inactive; negative
[2]
  mutagenic call: inactive; negative
Strain/Indicator: TA100, Metabolic Activation: RAT, LIVER, S-9, PHENOBARBITAL AND 5,6-BENZOFLAVONE
  mutagenic call: inactive; negative
Strain/Indicator: TA102, Metabolic Activation: NONE
  mutagenic call: active; positive
Strain/Indicator: TA102, Metabolic Activation: RAT, LIVER, S-9, PHENOBARBITAL AND 5,6-BENZOFLAVONE
  mutagenic call: active; positive
Strain/Indicator: TA104, Metabolic Activation: NONE
  mutagenic call: active; positive
Strain/Indicator: TA104, Metabolic Activation: RAT, LIVER, S-9, PHENOBARBITAL AND 5,6-BENZOFLAVONE
  mutagenic call: active; positive
[3]
  mutagenic call: inactive; negative
Strain/Indicator: TA1535, Metabolic Activation: RAT, LIVER, S-9, PHENOBARBITAL AND 5,6-BENZOFLAVONE
  mutagenic call: inactive; negative
[4]
  mutagenic call: inactive; negative
Strain/Indicator: TA1537, Metabolic Activation: RAT, LIVER, S-9, PHENOBARBITAL AND 5,6-BENZOFLAVONE
  mutagenic call: inactive; negative
Strain/Indicator: TA1538, Metabolic Activation: NONE
  mutagenic call: inactive; negative
Strain/Indicator: TA1538, Metabolic Activation: RAT, LIVER, S-9, PHENOBARBITAL AND 5,6-BENZOFLAVONE
  mutagenic call: inactive; negative
Strain/Indicator: TA2637, Metabolic Activation: NONE
  mutagenic call: active; positive
Strain/Indicator: TA2637, Metabolic Activation: RAT, LIVER, S-9, PHENOBARBITAL AND 5,6-BENZOFLAVONE
  mutagenic call: active; positive

## Cc1cc(O)c2c(c1O)C(=O)C13C(=C2O)C(=O)C2C(O)C1C1C(O)C3C(=O)C3=C(O)c4c(O)cc(C)c(O)c4C(=O)C321 (configuration not stated)
[2]
  mutagenic call: inactive; negative
Strain/Indicator: TA100, Metabolic Activation: RAT, LIVER, S-9, PHENOBARBITAL
  mutagenic call: inactive; negative

## Cc1c(C)c(Br)c(Br)c(Br)c1Br
Strain/Indicator: TA98, Metabolic Activation: HAMSTER, LIVER, S-9, AROCLOR 1254 (10%)
  mutagenic call: inactive; negative
[1]
  mutagenic call: inactive; negative
Strain/Indicator: TA98, Metabolic Activation: RAT, LIVER, S-9, AROCLOR 1254 (10%)
  mutagenic call: inactive; negative
Strain/Indicator: TA100, Metabolic Activation: HAMSTER, LIVER, S-9, AROCLOR 1254 (10%)
  mutagenic call: inactive; negative
[2]
  mutagenic call: inactive; negative
Strain/Indicator: TA100, Metabolic Activation: RAT, LIVER, S-9, AROCLOR 1254 (10%)
  mutagenic call: inactive; negative
Strain/Indicator: TA1535, Metabolic Activation: HAMSTER, LIVER, S-9, AROCLOR 1254 (10%)
  mutagenic call: inactive; negative
[3]
  mutagenic call: inactive; negative
Strain/Indicator: TA1535, Metabolic Activation: RAT, LIVER, S-9, AROCLOR 1254 (10%)
  mutagenic call: inactive; negative
Strain/Indicator: TA1537, Metabolic Activation: HAMSTER, LIVER, S-9, AROCLOR 1254 (10%)
  mutagenic call: inactive; negative
[4]
  mutagenic call: inactive; negative
Strain/Indicator: TA1537, Metabolic Activation: RAT, LIVER, S-9, AROCLOR 1254 (10%)
  mutagenic call: inactive; negative

— PubChem BioAssay AID1259407 (Chemical Carcinogenesis Research Information System (CCRIS), 2018)
